Measurements reported in the supplement of paper PMC9938120.

How the values were obtained:
Assay in all cases: drug sensitivity score (DSS3, normalised partial AUC of % inhibition dose-response) (DSS (score)); higher = more sensitive (stronger inhibition of viability); extreme values may be limits of the assay
FMOC02_1 = patient-derived low-grade serous ovarian cancer cells; conditions: 72 h; library: FO5A; assay format: 2D, 384-well, CellTiter-Glo
Procedure, shortened: (§1)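 Early-passage (under 10) patient-derived ovarian cancer cells were dispensed onto 384-well flat clear-bottom plates pre-plated with compounds at five concentrations spanning a 10,000-fold range, then incubated 72 h at 37 °C, 5% CO2. Viability was read with CellTiter-Glo, and the data were processed in Breeze. The drug sensitivity score is a partial area under the percent-inhibition dose-response curve divided by the log of the upper asymptote, with higher values meaning greater sensitivity.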

FMOC02_2 = patient-derived low-grade serous ovarian cancer cells; conditions: 72 h; library: FO5A; assay format: 2D, 384-well, CellTiter-Glo
Procedure, shortened: as §1

FMOC02_3 = patient-derived low-grade serous ovarian cancer cells; conditions: 72 h; library: FO5A; assay format: 2D, 384-well, CellTiter-Glo
Procedure, shortened: as §1

FMOC03 = patient-derived mucinous ovarian cancer cells; conditions: 72 h; library: FO5A; assay format: 2D, 384-well, CellTiter-Glo
Procedure, shortened: as §1

FMOC04 = patient-derived high-grade serous ovarian cancer cells; conditions: 72 h; library: FO5A; assay format: 2D, 384-well, CellTiter-Glo
Procedure, shortened: as §1

FMOC06 = patient-derived mucinous ovarian cancer cells; conditions: 72 h; library: FO5A; assay format: 2D, 384-well, CellTiter-Glo
Procedure, shortened: as §1

FMOC09 = patient-derived high-grade serous ovarian cancer cells; conditions: 72 h; library: FO5A; assay format: 2D, 384-well, CellTiter-Glo
Procedure, shortened: as §1

FMOC11 = patient-derived high-grade serous ovarian cancer cells; conditions: 72 h; library: FO5A; assay format: 2D, 384-well, CellTiter-Glo
Procedure, shortened: as §1

FMOC14 = patient-derived high-grade serous ovarian cancer cells; conditions: 72 h; library: FO5A; assay format: 2D, 384-well, CellTiter-Glo
Procedure, shortened: as §1

FMOC17 = patient-derived low-grade serous ovarian cancer cells; conditions: 72 h; library: FO5A; assay format: 2D, 384-well, CellTiter-Glo
Procedure, shortened: as §1

FMOC22 = patient-derived mucinous ovarian cancer cells; conditions: 72 h; library: FO5A; assay format: 2D, 384-well, CellTiter-Glo
Procedure, shortened: as §1

FMOC24 = patient-derived high-grade serous ovarian cancer cells; conditions: 72 h; library: FO5A; assay format: 2D, 384-well, CellTiter-Glo
Procedure, shortened: as §1

FMOC25_1 = patient-derived low-grade serous ovarian cancer cells; conditions: 72 h; library: FO4B; assay format: 2D, 384-well, CellTiter-Glo
Procedure, shortened: as §1

FMOC25_2 = patient-derived low-grade serous ovarian cancer cells; conditions: 72 h; library: FO5A; assay format: 2D, 384-well, CellTiter-Glo
Procedure, shortened: as §1

FMOC27 = patient-derived low-grade serous ovarian cancer cells; conditions: 72 h; library: FO5A; assay format: 2D, 384-well, CellTiter-Glo
Procedure, shortened: as §1

FMOC28 = patient-derived low-grade serous ovarian cancer cells; conditions: 72 h; library: FO5A; assay format: 2D, 384-well, CellTiter-Glo
Procedure, shortened: as §1

## CNC(=O)c1ccc(N2C(=S)N(c3ccc(C#N)c(C(F)(F)F)c3)C(=O)C2(C)C)cc1F [Enzalutamide]
FMOC02_1
  drug sensitivity score: 0
FMOC02_2
  drug sensitivity score: 0
FMOC02_3
  drug sensitivity score: 0
FMOC03
  drug sensitivity score: 0
FMOC04
  drug sensitivity score: 0
FMOC06
  drug sensitivity score: 0.1
FMOC09
  drug sensitivity score: 0
FMOC11
  drug sensitivity score: 0
FMOC14
  drug sensitivity score: 0
FMOC17
  drug sensitivity score: 0
FMOC22
  drug sensitivity score: 0
FMOC24
  drug sensitivity score: 0
FMOC25_1
  drug sensitivity score: 0
FMOC25_2
  drug sensitivity score: 0
FMOC27
  drug sensitivity score: 0.1
FMOC28
  drug sensitivity score: 0

## N#CC1(c2ccc(NC(=O)c3cccnc3NCc3ccncc3)cc2)CCCC1 [Apatinib]
FMOC02_1
  drug sensitivity score: 0.3
FMOC02_2
  drug sensitivity score: 1.1
FMOC02_3
  drug sensitivity score: 1.5
FMOC03
  drug sensitivity score: 0
FMOC04
  drug sensitivity score: 0.6
FMOC06
  drug sensitivity score: 0
FMOC09
  drug sensitivity score: 0
FMOC11
  drug sensitivity score: 0
FMOC14
  drug sensitivity score: 0
FMOC17
  drug sensitivity score: 0
FMOC22
  drug sensitivity score: 0
FMOC24
  drug sensitivity score: 0.1
FMOC25_1
  drug sensitivity score: 2.3
FMOC25_2
  drug sensitivity score: 1.5
FMOC27
  drug sensitivity score: 0
FMOC28
  drug sensitivity score: 4.5

## Cc1cnc(NC(=O)Nc2cc(Br)c(C)cc2OC[C@@H]2CNCCO2)cn1 [Rabusertib]
FMOC02_1
  drug sensitivity score: 2.2
FMOC02_2
  drug sensitivity score: 0
FMOC02_3
  drug sensitivity score: 0.8
FMOC03
  drug sensitivity score: 0
FMOC04
  drug sensitivity score: 1.7
FMOC06
  drug sensitivity score: 0.2
FMOC09
  drug sensitivity score: 0
FMOC11
  drug sensitivity score: 2
FMOC14
  drug sensitivity score: 3.8
FMOC17
  drug sensitivity score: 1.1
FMOC22
  drug sensitivity score: 0
FMOC24
  drug sensitivity score: 3.6
FMOC25_1
  drug sensitivity score: 1
FMOC25_2
  drug sensitivity score: 2
FMOC27
  drug sensitivity score: 0
FMOC28
  drug sensitivity score: 0

## CCC(C)n1ncn(-c2ccc(N3CCN(c4ccc(OCC5COC(Cn6cncn6)(c6ccc(Cl)cc6Cl)O5)cc4)CC3)cc2)c1=O (centres undefined) [Itraconazole]
FMOC02_1
  drug sensitivity score: 5.3
FMOC02_2
  drug sensitivity score: 3
FMOC02_3
  drug sensitivity score: 6.6
FMOC03
  drug sensitivity score: 4.5
FMOC04
  drug sensitivity score: 0.1
FMOC06
  drug sensitivity score: 0.7
FMOC09
  drug sensitivity score: 0.8
FMOC11
  drug sensitivity score: 1.2
FMOC14
  drug sensitivity score: 1.3
FMOC17
  drug sensitivity score: 4.8
FMOC22
  drug sensitivity score: 0.2
FMOC24
  drug sensitivity score: 4.9
FMOC25_1
  drug sensitivity score: 4
FMOC25_2
  drug sensitivity score: 4.6
FMOC27
  drug sensitivity score: 0.6
FMOC28
  drug sensitivity score: 4.4

## O=C(Nc1cc(Cl)cc2c1[nH]c1cnccc12)c1cccnc1 [PS-1145]
FMOC02_1
  drug sensitivity score: 2.2
FMOC02_2
  drug sensitivity score: 4.6
FMOC02_3
  drug sensitivity score: 7.2
FMOC03
  drug sensitivity score: 0.1
FMOC04
  drug sensitivity score: 0
FMOC06
  drug sensitivity score: 0.8
FMOC09
  drug sensitivity score: 1.1
FMOC11
  drug sensitivity score: 0.8
FMOC14
  drug sensitivity score: 0
FMOC17
  drug sensitivity score: 2.3
FMOC22
  drug sensitivity score: 0
FMOC24
  drug sensitivity score: 2.75
FMOC25_1
  drug sensitivity score: 3.2
FMOC25_2
  drug sensitivity score: 2.7
FMOC27
  drug sensitivity score: 0.7
FMOC28
  drug sensitivity score: 3

## COc1ccc(Cn2ccc3ccc(C(=O)NO)cc32)cc1
FMOC02_1
  drug sensitivity score: 1
FMOC02_2
  drug sensitivity score: 3.4
FMOC02_3
  drug sensitivity score: 1.8
FMOC03
  drug sensitivity score: 1.1
FMOC04
  drug sensitivity score: 0
FMOC06
  drug sensitivity score: 0.2
FMOC09
  drug sensitivity score: 1.1
FMOC11
  drug sensitivity score: 0.6
FMOC14
  drug sensitivity score: 1.1
FMOC17
  drug sensitivity score: 1.4
FMOC22
  drug sensitivity score: 0.4
FMOC24
  drug sensitivity score: 0.4
FMOC25_1
  drug sensitivity score: 0.8
FMOC25_2
  drug sensitivity score: 2.5
FMOC27
  drug sensitivity score: 0.2
FMOC28
  drug sensitivity score: 4.9

## NC(=S)N/N=C/c1ncccc1N [Triapine]
FMOC02_1
  drug sensitivity score: 4.2
FMOC02_2
  drug sensitivity score: 3.5
FMOC02_3
  drug sensitivity score: 1.7
FMOC03
  drug sensitivity score: 2.4
FMOC04
  drug sensitivity score: 0
FMOC06
  drug sensitivity score: 1.8
FMOC09
  drug sensitivity score: 0.9
FMOC11
  drug sensitivity score: 1.7
FMOC14
  drug sensitivity score: 0
FMOC17
  drug sensitivity score: 2.2
FMOC22
  drug sensitivity score: 2.4
FMOC24
  drug sensitivity score: 1.15
FMOC25_1
  drug sensitivity score: 3.2
FMOC25_2
  drug sensitivity score: 6
FMOC27
  drug sensitivity score: 2.3
FMOC28
  drug sensitivity score: 5.1

## C=CC[C@@H]1/C=C(\C)C[C@H](C)C[C@H](OC)[C@H]2O[C@@](O)(C(=O)C(=O)N3CCCC[C@H]3C(=O)O[C@H](/C(C)=C/[C@@H]3CC[C@@H](O)[C@H](OC)C3)[C@H](C)[C@@H](O)CC1=O)[C@H](C)C[C@@H]2OC [Tacrolimus]
FMOC02_1
  drug sensitivity score: 0.4
FMOC02_2
  drug sensitivity score: 1.9
FMOC02_3
  drug sensitivity score: 1.9
FMOC03
  drug sensitivity score: 0
FMOC04
  drug sensitivity score: 0
FMOC06
  drug sensitivity score: 0
FMOC09
  drug sensitivity score: 0
FMOC11
  drug sensitivity score: 1.4
FMOC14
  drug sensitivity score: 1.4
FMOC17
  drug sensitivity score: 0.9
FMOC22
  drug sensitivity score: 0.1
FMOC24
  drug sensitivity score: 5
FMOC25_1
  drug sensitivity score: 0
FMOC25_2
  drug sensitivity score: 0
FMOC27
  drug sensitivity score: 1.7
FMOC28
  drug sensitivity score: 0.8

## CC(C)C(=O)Nc1ccc([N+](=O)[O-])c(C(F)(F)F)c1 [Flutamide]
FMOC02_1
  drug sensitivity score: 0
FMOC02_2
  drug sensitivity score: 0
FMOC02_3
  drug sensitivity score: 0
FMOC03
  drug sensitivity score: 0
FMOC04
  drug sensitivity score: 0.05
FMOC06
  drug sensitivity score: 0
FMOC09
  drug sensitivity score: 0
FMOC11
  drug sensitivity score: 0
FMOC14
  drug sensitivity score: 0
FMOC17
  drug sensitivity score: 0
FMOC22
  drug sensitivity score: 0
FMOC24
  drug sensitivity score: 2.1
FMOC25_1
  drug sensitivity score: 0
FMOC25_2
  drug sensitivity score: 0
FMOC27
  drug sensitivity score: 0
FMOC28
  drug sensitivity score: 0

## CC(C)(C)Cn1c(N)nc2ccc(-c3[nH]c(C(C)(C)C)nc3-c3ccc(F)cc3)nc21 [Ralimetinib]
FMOC02_1
  drug sensitivity score: 6.6
FMOC02_2
  drug sensitivity score: 4.3
FMOC02_3
  drug sensitivity score: 3.4
FMOC03
  drug sensitivity score: 2.7
FMOC04
  drug sensitivity score: 1.05
FMOC06
  drug sensitivity score: 3.1
FMOC09
  drug sensitivity score: 1.9
FMOC11
  drug sensitivity score: 6.5
FMOC14
  drug sensitivity score: 2.2
FMOC17
  drug sensitivity score: 4.4
FMOC22
  drug sensitivity score: 0.4
FMOC24
  drug sensitivity score: 1.95
FMOC25_1
  drug sensitivity score: 1.1
FMOC25_2
  drug sensitivity score: 3.4
FMOC27
  drug sensitivity score: 3.2
FMOC28
  drug sensitivity score: 1.1

## CC1CCC(n2c3cnccc3c3cnc(Nc4ccc5c(n4)CCN(C(=O)CO)C5)nc32)CC1 (centres undefined) [AMG-925]
FMOC02_1
  drug sensitivity score: 0
FMOC02_2
  drug sensitivity score: 0
FMOC02_3
  drug sensitivity score: 1.3
FMOC03
  drug sensitivity score: 0
FMOC04
  drug sensitivity score: 0
FMOC06
  drug sensitivity score: 0
FMOC09
  drug sensitivity score: 0
FMOC11
  drug sensitivity score: 0
FMOC14
  drug sensitivity score: 0
FMOC17
  drug sensitivity score: 0
FMOC22
  drug sensitivity score: 0.2
FMOC24
  drug sensitivity score: 0
FMOC25_1
  drug sensitivity score: 0.7
FMOC25_2
  drug sensitivity score: 0.5
FMOC27
  drug sensitivity score: 0.9
FMOC28
  drug sensitivity score: 0

## FC(F)(F)c1ccc(/C=C/c2nc(COc3ccc(CCCCn4ccnn4)cc3)co2)cc1 [Mubritinib]
FMOC02_1
  drug sensitivity score: 0
FMOC02_2
  drug sensitivity score: 0
FMOC02_3
  drug sensitivity score: 0
FMOC03
  drug sensitivity score: 3.9
FMOC04
  drug sensitivity score: 0
FMOC06
  drug sensitivity score: 0.6
FMOC09
  drug sensitivity score: 0
FMOC11
  drug sensitivity score: 0.6
FMOC14
  drug sensitivity score: 0.7
FMOC17
  drug sensitivity score: 0
FMOC22
  drug sensitivity score: 3
FMOC24
  drug sensitivity score: 0
FMOC25_1
  drug sensitivity score: 0.1
FMOC25_2
  drug sensitivity score: 1.1
FMOC27
  drug sensitivity score: 1.7
FMOC28
  drug sensitivity score: 0

## CCCC(CCC)C(=O)O [Valproic acid]
FMOC02_1
  drug sensitivity score: 0
FMOC02_2
  drug sensitivity score: 0
FMOC02_3
  drug sensitivity score: 0
FMOC03
  drug sensitivity score: 0
FMOC04
  drug sensitivity score: 0
FMOC06
  drug sensitivity score: 0
FMOC09
  drug sensitivity score: 0
FMOC11
  drug sensitivity score: 0
FMOC14
  drug sensitivity score: 0
FMOC17
  drug sensitivity score: 0
FMOC22
  drug sensitivity score: 0
FMOC24
  drug sensitivity score: 0
FMOC25_1
  drug sensitivity score: 0
FMOC25_2
  drug sensitivity score: 0
FMOC27
  drug sensitivity score: 0
FMOC28
  drug sensitivity score: 0.1

## Cn1cc(-c2cnn3c(N)c(Br)c([C@@H]4CCCNC4)nc23)cn1 [MK-8776]
FMOC02_1
  drug sensitivity score: 2
FMOC02_2
  drug sensitivity score: 0
FMOC02_3
  drug sensitivity score: 1.5
FMOC03
  drug sensitivity score: 0
FMOC04
  drug sensitivity score: 2.45
FMOC06
  drug sensitivity score: 0
FMOC09
  drug sensitivity score: 0
FMOC11
  drug sensitivity score: 2.4
FMOC14
  drug sensitivity score: 0.9
FMOC17
  drug sensitivity score: 0.6
FMOC22
  drug sensitivity score: 0
FMOC24
  drug sensitivity score: 0.3
FMOC25_1
  drug sensitivity score: 1.4
FMOC25_2
  drug sensitivity score: 2.8
FMOC27
  drug sensitivity score: 0
FMOC28
  drug sensitivity score: 2.5
